# Source: article PMC7139388, “Benzothiazolyl Ureas are Low Micromolar and Uncompetitive Inhibitors of 17β-HSD10 with Implications to Alzheimer’s Disease Treatment” (International Journal of Molecular Sciences, 2020)
# Biological target: T1, human 17β-HSD10 enzyme (Homo sapiens, UniProt Q99714)
# T1 construct: made in house; host or cells: Escherichia coli BL21 (DE3)
# T1 sequence (Q99714 1-261): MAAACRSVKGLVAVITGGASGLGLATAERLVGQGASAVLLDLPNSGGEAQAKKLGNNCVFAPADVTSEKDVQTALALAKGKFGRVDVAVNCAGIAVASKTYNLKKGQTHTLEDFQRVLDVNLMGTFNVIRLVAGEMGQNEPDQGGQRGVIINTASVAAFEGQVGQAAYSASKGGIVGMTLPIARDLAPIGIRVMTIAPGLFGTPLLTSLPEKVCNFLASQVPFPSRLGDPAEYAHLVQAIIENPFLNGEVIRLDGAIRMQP
# Assay: 17β-HSD10 enzyme inhibition screening and IC50 determination (AAC reductase assay, NADH absorbance at 340 nm)
# Format: biochemical
# Details: 10 μM compound; 320 μM AAC, 320 μM NADH, 37 °C; read-out: Percentage of Residual Activity at 10 μM
# Experimental: The enzyme activity of the human recombinant 17β-HSD10 was determined from previously published methods using acetoacetyl-CoA (AAC) as a substrate. The method was based on the decrease in nicotinamide adenine dinucleotide (NADH) cofactor absorbance at 340 nm during its utilization by the enzyme. To establish the reaction properties correctly, the enzyme kinetic parameters were determined. […] The enzymatic activity of the recombinant protein was determined by using AAC as a substrate for enzyme reduction. To determine the Michaelis constant Km and maximal rate of enzyme reaction Vmax, different substrate concentrations ranging from 0 to 500 μM were incubated with a fixed concentration of cofactor and enzyme. The reaction readout was absorbance at 340 nm for 5 min in 20 s intervals at 37 °C. The data were analyzed by GraphPad Prism 7 (GraphPad Software Inc., San Diego, CA, USA) and Vmax and Km were calculated by non-linear regression analysis using the reaction velocity and substrate concentration data. All reactions were measured in triplicate, and the values were expressed as means ± SD. The general reaction mixture for the reductase activity measurement consisted of 320 μM AAC, 320 μM NADH as the enzyme cofactor and 0.15 μg of recombinant enzyme in assay buffer (10 mM Tris-HCl, pH 7.4, 150 mM NaCl, 1 mM dithiothreitol, 0.001% Tween 20 and 0.01% bovine serum albumin) in 100 µL of reaction buffer. The process was as follows: the reaction mixture of enzyme and cofactor in assay buffer was preincubated for 5 min at 37 °C prior to substrate addition. The reaction was performed in 96-well polystyrene plates at 37 °C (Tecan Spark 10M, Männedorf, Switzerland), and enzyme activity was recorded as the change in absorbance at 340 nm over 1 min and calculated using the molar extinction coefficient of NADH (ε = 6220 M^−1·cm^−1). The novel compounds were screened at 10 μM or 1 μM to determine their ability to inhibit 17β-HSD10 enzyme. The tested compounds were dissolved in dimethyl sulfoxide (DMSO) to a stock concentration of 10 mM and then diluted into deionized water to get the working concentration. The inhibitory screening was based on AAC reductase assay. The remaining enzyme activity was measured at 340 nm at 20 s intervals for 5 min and determined as the difference in absorbance between inhibited and non-inhibited enzymatic reaction. The DMSO was used as well as the inhibitor as the vehicle control. The potent known 17β-HSD10 inhibitor AG18051 [19] was used as a control for the enzymatic reaction. For compounds with at least 50% 17β-HSD10 inhibition in the 10 µM screening assay, the IC50 was determined. For this purpose, the AAC reductase assay was used and the remaining enzyme activity was measured as dose-response inhibition with at least six different inhibitor concentrations (ranging from 0 to 3 μM) at fixed substrate, enzyme, and cofactor concentrations. The data were analyzed by using GraphPad Prism 7 software in non-linear regression, and IC50 values were calculated for each inhibitor from at least three independent measurements, all in triplicate.
row,SMILES,remaining activity at 10 µM [%]
1,"O=C(Nc1ccc(O)c(Cl)c1)Nc1nc2cccc(Cl)c2s1 [Compound 4ao, 1-(3-chloro-4-hydroxyphenyl)-3-(7-chlorobenzo[d]thiazol-2-yl)urea]",38 ± 5.9
2,"O=C(Nc1nc2ccc(F)cc2s1)Nc1ccc(O)cc1F [Compound 4a, 1-(2-fluoro-4-hydroxyphenyl)-3-(6-fluorobenzo[d]thiazol-2-yl)urea]",75.5 ± 5.2
3,"O=C(Nc1ccc(Cl)c(Cl)c1)Nc1nc2ccc(Cl)cc2s1 [Compound 4x, 1-(6-chlorobenzo[d]thiazol-2-yl)-3-(3,4-dichlorophenyl)urea]",101 ± 7.8
4,"COc1ccc2nc(NC(=O)Nc3ccc(O)cc3F)sc2c1 [Compound 4c, 1-(2-fluoro-4-hydroxyphenyl)-3-(6-methoxybenzo[d]thiazol-2-yl)urea]",74.9 ± 6.5
5,"COc1ccc(NC(=O)Nc2nc3ccc(Cl)cc3s2)cc1O [Compound 4ai, 1-(6-chlorobenzo[d]thiazol-2-yl)-3-(3-hydroxy-4-methoxyphenyl)urea]",80.5 ± 4.2
6,"O=C(Nc1ccc(O)c(Cl)c1)Nc1nc2ccc(Cl)cc2o1 [Compound 4ar, 1-(3-chloro-4-hydroxyphenyl)-3-(6-chlorobenzo[d]oxazol-2-yl)urea]",50.7 ± 5.5
7,"O=C(Nc1ccc(O)c(Cl)c1)Nc1nc2ccc(I)cc2s1 [Compound 4ax, 1-(3-chloro-4-hydroxyphenyl)-3-(6-iodobenzo[d]thiazol-2-yl)urea]",65.9 ± 8.4
8,"O=C(Nc1ccc(O)c(F)c1)Nc1nc2ccc(Cl)cc2s1 [Compound 4e, 1-(6-chlorobenzo[d]thiazol-2-yl)-3-(3-fluoro-4-hydroxyphenyl)urea]",80.2 ± 4.2
9,"O=C(Nc1cc(F)c(O)c(F)c1)Nc1nc2ccc(F)cc2s1 [Compound 4g, 1-(3,5-difluoro-4-hydroxyphenyl)-3-(6-fluorobenzo[d]thiazol-2-yl)urea]",62.5 ± 3.7
10,"O=C(Nc1ccc(Cl)cc1)Nc1nc2ccc(Cl)cc2s1 [Compound 4w, 1-(6-chlorobenzo[d]thiazol-2-yl)-3-(4-chlorophenyl)urea]",100.8 ± 0.8
11,"COc1ccc(NC(=O)Nc2nc3ccc(O)cc3s2)cc1Cl [Compound 4aj, 1-(3-chloro-4-methoxyphenyl)-3-(6-hydroxybenzo[d]thiazol-2-yl)urea]",78.3 ± 6.4
12,"COc1c(Cl)cc(NC(=O)Nc2nc3ccc(Cl)cc3s2)cc1C(=O)O [Compound 4ae, 3-chloro-5-(3-(6-chlorobenzo[d]thiazol-2-yl)ureido)-2-methoxybenzoic acid]",83.9 ± 9
13,"COc1ccc2nc(NC(=O)Nc3ccc(F)cc3O)sc2c1 [Compound 4l, 1-(4-fluoro-2-hydroxyphenyl)-3-(6-methoxybenzo[d]thiazol-2-yl)urea]",92.1 ± 2.5
14,"COc1cc(NC(=O)Nc2nc3ccc(Cl)cc3s2)ccc1O [Compound 4ah, 1-(6-chlorobenzo[d]thiazol-2-yl)-3-(4-hydroxy-3-methoxyphenyl)urea]",76 ± 2.4
15,"COc1ccc2nc(NC(=O)Nc3cc(F)c(O)c(F)c3)sc2c1 [Compound 4i, 1-(3,5-difluoro-4-hydroxyphenyl)-3-(6-methoxybenzo[d]thiazol-2-yl)urea]",56.9 ± 4.4
16,"COc1c(F)cccc1NC(=O)Nc1nc2ccc(Cl)cc2s1 [Compound 4q, 1-(6-chlorobenzo[d]thiazol-2-yl)-3-(3-fluoro-2-methoxyphenyl)urea]",69.3 ± 4.1
17,"O=C(Nc1nc2ccc(F)cc2s1)Nc1ccc(F)c(F)c1O [Compound 4m, 1-(3,4-difluoro-2-hydroxyphenyl)-3-(6-fluorobenzo[d]thiazol-2-yl)urea]",80.5 ± 5.7
18,"O=C(Nc1ccc(C(=O)O)c(Cl)c1)Nc1nc2ccc(Cl)cc2s1 [Compound 4aa, 2-chloro-4-(3-(6-chlorobenzo[d]thiazol-2-yl)ureido)benzoic acid]",90.4 ± 9.3
19,"COc1ccc2nc(NC(=O)Nc3ccc(O)c(F)c3)sc2c1 [Compound 4f, 1-(3-fluoro-4-hydroxyphenyl)-3-(6-methoxybenzo[d]thiazol-2-yl)urea]",84.5 ± 4.8
20,"COc1c(Cl)cc(NC(=O)Nc2nc3ccc(Cl)cc3s2)cc1Cl [Compound 4ac, 1-(6-chlorobenzo[d]thiazol-2-yl)-3-(3,5-dichloro-4-methoxyphenyl)urea]",91.2 ± 5.5
21,"O=C(Nc1ccc(O)c(Cl)c1)Nc1nc2cc(Cl)ccc2o1 [Compound 4aq, 1-(3-chloro-4-hydroxyphenyl)-3-(5-chlorobenzo[d]oxazol-2-yl)urea]",57.1 ± 5.4
22,"O=C(Nc1ccc(O)c(Cl)c1)Nc1nc2c(Cl)cccc2s1 [Compound 4am, 1-(3-chloro-4-hydroxyphenyl)-3-(4-chlorobenzo[d]thiazol-2-yl)urea]",58.6 ± 1.8
23,"COC(=O)c1ccc2nc(NC(=O)Nc3ccc(O)c(Cl)c3)sc2c1 [Compound 4bd, methyl 2-(3-(3-chloro-4-hydroxyphenyl)ureido)benzo[d]thiazole-6-carboxylate]",72.6 ± 2.4
24,"O=C(Nc1ccc(O)c(Cl)c1)Nc1nc2ccccc2o1 [Compound 4ap, 1-(benzo[d]oxazol-2-yl)-3-(3-chloro-4-hydroxyphenyl)urea]",41.7 ± 4.2
25,"CC(=O)c1ccc2nc(NC(=O)Nc3ccc(O)c(Cl)c3)sc2c1 [Compound 4bc, 1-(6-acetylbenzo[d]thiazol-2-yl)-3-(3-chloro-4-hydroxyphenyl)urea]",61.4 ± 3.2

# Same assay, conditions: 320 μM AAC, 320 μM NADH, 37 °C
row,SMILES,IC50 [nM]
1,"O=C(Nc1ccc(O)c(Cl)c1)Nc1nc2cccc(Cl)c2s1 [Compound 4ao, 1-(3-chloro-4-hydroxyphenyl)-3-(7-chlorobenzo[d]thiazol-2-yl)urea]",2500 ± 300
2,"O=C(Nc1ccc(O)c(Cl)c1)Nc1nc2ccc(Cl)cc2o1 [Compound 4ar, 1-(3-chloro-4-hydroxyphenyl)-3-(6-chlorobenzo[d]oxazol-2-yl)urea]",2400 ± 600
3,"O=C(Nc1ccc(O)c(Cl)c1)Nc1nc2ccccc2o1 [Compound 4ap, 1-(benzo[d]oxazol-2-yl)-3-(3-chloro-4-hydroxyphenyl)urea]",4700 ± 2300

# System: not given
# Assay: not given
# Details: not given
row,SMILES,melting point
1,"O=C(Nc1ccc(O)c(Cl)c1)Nc1nc2cccc(Cl)c2s1 [Compound 4ao, 1-(3-chloro-4-hydroxyphenyl)-3-(7-chlorobenzo[d]thiazol-2-yl)urea]",272 to 274 °C
2,"O=C(Nc1nc2ccc(F)cc2s1)Nc1ccc(O)cc1F [Compound 4a, 1-(2-fluoro-4-hydroxyphenyl)-3-(6-fluorobenzo[d]thiazol-2-yl)urea]",270 °C (dec.)
3,"O=C(Nc1ccc(Cl)c(Cl)c1)Nc1nc2ccc(Cl)cc2s1 [Compound 4x, 1-(6-chlorobenzo[d]thiazol-2-yl)-3-(3,4-dichlorophenyl)urea]",334 to 336 °C
4,"COc1ccc2nc(NC(=O)Nc3ccc(O)cc3F)sc2c1 [Compound 4c, 1-(2-fluoro-4-hydroxyphenyl)-3-(6-methoxybenzo[d]thiazol-2-yl)urea]",241 °C (dec.)
5,"COc1ccc(NC(=O)Nc2nc3ccc(Cl)cc3s2)cc1O [Compound 4ai, 1-(6-chlorobenzo[d]thiazol-2-yl)-3-(3-hydroxy-4-methoxyphenyl)urea]",281 to 283 °C
6,"O=C(Nc1ccc(O)c(Cl)c1)Nc1nc2ccc(Cl)cc2o1 [Compound 4ar, 1-(3-chloro-4-hydroxyphenyl)-3-(6-chlorobenzo[d]oxazol-2-yl)urea]",188.5 to 190.5 °C
7,"O=C(Nc1ccc(O)c(Cl)c1)Nc1nc2ccc(I)cc2s1 [Compound 4ax, 1-(3-chloro-4-hydroxyphenyl)-3-(6-iodobenzo[d]thiazol-2-yl)urea]",271 to 273 °C
8,"O=C(Nc1ccc(O)c(F)c1)Nc1nc2ccc(Cl)cc2s1 [Compound 4e, 1-(6-chlorobenzo[d]thiazol-2-yl)-3-(3-fluoro-4-hydroxyphenyl)urea]",281 to 282 °C (dec.)
9,"O=C(Nc1cc(F)c(O)c(F)c1)Nc1nc2ccc(F)cc2s1 [Compound 4g, 1-(3,5-difluoro-4-hydroxyphenyl)-3-(6-fluorobenzo[d]thiazol-2-yl)urea]",317 to 319 °C
10,"O=C(Nc1ccc(Cl)cc1)Nc1nc2ccc(Cl)cc2s1 [Compound 4w, 1-(6-chlorobenzo[d]thiazol-2-yl)-3-(4-chlorophenyl)urea]",335 to 337 °C
11,"COc1ccc(NC(=O)Nc2nc3ccc(O)cc3s2)cc1Cl [Compound 4aj, 1-(3-chloro-4-methoxyphenyl)-3-(6-hydroxybenzo[d]thiazol-2-yl)urea]",290 to 292 °C
12,"COc1c(Cl)cc(NC(=O)Nc2nc3ccc(Cl)cc3s2)cc1C(=O)O [Compound 4ae, 3-chloro-5-(3-(6-chlorobenzo[d]thiazol-2-yl)ureido)-2-methoxybenzoic acid]",263.5 to 265 °C
13,"COc1ccc2nc(NC(=O)Nc3ccc(F)cc3O)sc2c1 [Compound 4l, 1-(4-fluoro-2-hydroxyphenyl)-3-(6-methoxybenzo[d]thiazol-2-yl)urea]",207 to 208 °C (dec.)
14,"COc1cc(NC(=O)Nc2nc3ccc(Cl)cc3s2)ccc1O [Compound 4ah, 1-(6-chlorobenzo[d]thiazol-2-yl)-3-(4-hydroxy-3-methoxyphenyl)urea]",257 to 259 °C
15,"COc1ccc2nc(NC(=O)Nc3cc(F)c(O)c(F)c3)sc2c1 [Compound 4i, 1-(3,5-difluoro-4-hydroxyphenyl)-3-(6-methoxybenzo[d]thiazol-2-yl)urea]",161 to 162 °C
16,"COc1c(F)cccc1NC(=O)Nc1nc2ccc(Cl)cc2s1 [Compound 4q, 1-(6-chlorobenzo[d]thiazol-2-yl)-3-(3-fluoro-2-methoxyphenyl)urea]",341 to 343 °C (dec.)
17,"O=C(Nc1nc2ccc(F)cc2s1)Nc1ccc(F)c(F)c1O [Compound 4m, 1-(3,4-difluoro-2-hydroxyphenyl)-3-(6-fluorobenzo[d]thiazol-2-yl)urea]",209 to 210 °C
18,"O=C(Nc1ccc(C(=O)O)c(Cl)c1)Nc1nc2ccc(Cl)cc2s1 [Compound 4aa, 2-chloro-4-(3-(6-chlorobenzo[d]thiazol-2-yl)ureido)benzoic acid]",324 to 326 °C
19,"COc1ccc2nc(NC(=O)Nc3ccc(O)c(F)c3)sc2c1 [Compound 4f, 1-(3-fluoro-4-hydroxyphenyl)-3-(6-methoxybenzo[d]thiazol-2-yl)urea]",250 °C (dec.)
20,"COc1c(Cl)cc(NC(=O)Nc2nc3ccc(Cl)cc3s2)cc1Cl [Compound 4ac, 1-(6-chlorobenzo[d]thiazol-2-yl)-3-(3,5-dichloro-4-methoxyphenyl)urea]",290 °C (dec.)
21,"O=C(Nc1ccc(O)c(Cl)c1)Nc1nc2cc(Cl)ccc2o1 [Compound 4aq, 1-(3-chloro-4-hydroxyphenyl)-3-(5-chlorobenzo[d]oxazol-2-yl)urea]",176 to 178 °C
22,"O=C(Nc1ccc(O)c(Cl)c1)Nc1nc2c(Cl)cccc2s1 [Compound 4am, 1-(3-chloro-4-hydroxyphenyl)-3-(4-chlorobenzo[d]thiazol-2-yl)urea]",237 to 239 °C
23,"COC(=O)c1ccc2nc(NC(=O)Nc3ccc(O)c(Cl)c3)sc2c1 [Compound 4bd, methyl 2-(3-(3-chloro-4-hydroxyphenyl)ureido)benzo[d]thiazole-6-carboxylate]",278 to 280 °C
24,"O=C(Nc1ccc(O)c(Cl)c1)Nc1nc2ccccc2o1 [Compound 4ap, 1-(benzo[d]oxazol-2-yl)-3-(3-chloro-4-hydroxyphenyl)urea]",190.5 to 191.5 °C
25,"CC(=O)c1ccc2nc(NC(=O)Nc3ccc(O)c(Cl)c3)sc2c1 [Compound 4bc, 1-(6-acetylbenzo[d]thiazol-2-yl)-3-(3-chloro-4-hydroxyphenyl)urea]",242 to 244 °C
